The results in this text go back to the supplement of paper PMC10307832.

Holding throughout (experiment): relative viability (nuclei count vs DMSO), 5 days (fraction); higher = more cells survive
Compound in the test “AGI-6780 + Crizotinib”: O=C(Nc1cccc(C(F)(F)F)c1)Nc1cc(S(=O)(=O)NC2CC2)ccc1-c1ccsc1 [AGI-6780] + C[C@@H](Oc1cc(-c2cnn(C3CCNCC3)c2)cnc1N)c1c(Cl)ccc(F)c1Cl [Crizotinib] (partner 1 µM)
The essentials: (§1)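 Values are medians from duplicate plates. Each reflects relative viability, defined as the nuclei count of treated wells over that of vehicle wells. Lung cancer cell lines in 1536-well plates were pin-tool dosed one day after seeding with one drug alone or with a fixed anchor-drug dose plus five library-drug doses (not always all listed) in √10 steps, then fixed, stained and imaged at 4× after 5 days.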

Compound in the test “AGI-6780 + Navitoclax”: O=C(Nc1cccc(C(F)(F)F)c1)Nc1cc(S(=O)(=O)NC2CC2)ccc1-c1ccsc1 [AGI-6780] + CC1(C)CCC(c2ccc(Cl)cc2)=C(CN2CCN(c3ccc(C(=O)NS(=O)(=O)c4ccc(N[C@H](CCN5CCOCC5)CSc5ccccc5)c(S(=O)(=O)C(F)(F)F)c4)cc3)CC2)C1 [Navitoclax] (partner 0.5 µM)
The method in brief: as §1

Compound in the test “AGI-6780 + Dasatinib”: O=C(Nc1cccc(C(F)(F)F)c1)Nc1cc(S(=O)(=O)NC2CC2)ccc1-c1ccsc1 [AGI-6780] + Cc1nc(Nc2ncc(C(=O)Nc3c(C)cccc3Cl)s2)cc(N2CCN(CCO)CC2)n1 [Dasatinib] (partner 0.075 µM)
The essentials:
as §1

Compound in the test “AGI-6780 + Vorinostat”: O=C(Nc1cccc(C(F)(F)F)c1)Nc1cc(S(=O)(=O)NC2CC2)ccc1-c1ccsc1 [AGI-6780] + O=C(CCCCCCC(=O)Nc1ccccc1)NO [Vorinostat] (partner 1 µM)
The method in brief:
as §1

Turning to COR-L23, the relative viability with AGI-6780 + Crizotinib (first compound 0.08 µM) turned out to be 0.678; in the test with AGI-6780 + Crizotinib (first compound 0.253 µM), 0.622; in the test with AGI-6780 + Crizotinib (first compound 0.8 µM) it was 0.564; with AGI-6780 + Crizotinib (first compound 2.53 µM), 0.754; with AGI-6780 + Crizotinib (first compound 8 µM), 0.617; with AGI-6780 + Navitoclax (first compound 0.08 µM), 1.01. Besides, the relative viability with AGI-6780 + Navitoclax (first compound 0.253 µM) came to 0.961; in the test with AGI-6780 + Navitoclax (first compound 0.8 µM), 0.985; with AGI-6780 + Navitoclax (first compound 2.53 µM) it was 1.02; with AGI-6780 + Navitoclax (first compound 8 µM), 1.11; in the test with AGI-6780 + Dasatinib (first compound 0.08 µM), 0.548; with AGI-6780 + Dasatinib (first compound 0.253 µM) it was 0.42. Also, the relative viability came to 0.529 in the test with AGI-6780 + Dasatinib (first compound 0.8 µM); 0.496 with AGI-6780 + Dasatinib (first compound 2.53 µM); 0.488 with AGI-6780 + Dasatinib (first compound 8 µM); 0.348 in the test with AGI-6780 + Vorinostat (first compound 0.08 µM); 0.425 with AGI-6780 + Vorinostat (first compound 0.253 µM); 0.429 with AGI-6780 + Vorinostat (first compound 0.8 µM). In addition, the values for the relative viability in the test with AGI-6780 + Vorinostat (first compound 2.53 µM) and with AGI-6780 + Vorinostat (first compound 8 µM) were 0.554 and 0.453, respectively.

Regarding NCI-H1755, the relative viability worked out at 0.878 in the test with AGI-6780 + Crizotinib (first compound 0.08 µM); 0.818 in the test with AGI-6780 + Crizotinib (first compound 0.253 µM); 1 with AGI-6780 + Crizotinib (first compound 0.8 µM); 0.79 with AGI-6780 + Crizotinib (first compound 2.53 µM); 0.886 in the test with AGI-6780 + Crizotinib (first compound 8 µM); 1.04 with AGI-6780 + Navitoclax (first compound 0.08 µM). Further, the relative viability in the test with AGI-6780 + Navitoclax (first compound 0.253 µM) was found to be 1.01; in the test with AGI-6780 + Navitoclax (first compound 0.8 µM), 0.977; in the test with AGI-6780 + Navitoclax (first compound 2.53 µM), 0.961; in the test with AGI-6780 + Navitoclax (first compound 8 µM), 0.894; in the test with AGI-6780 + Dasatinib (first compound 0.08 µM), 0.479; in the test with AGI-6780 + Dasatinib (first compound 0.253 µM) it was 0.502. Moreover, the relative viability turned out to be 0.456 with AGI-6780 + Dasatinib (first compound 0.8 µM); 0.351 with AGI-6780 + Dasatinib (first compound 2.53 µM); 0.422 with AGI-6780 + Dasatinib (first compound 8 µM); 0.751 with AGI-6780 + Vorinostat (first compound 0.08 µM); 0.813 with AGI-6780 + Vorinostat (first compound 0.253 µM); 0.646 with AGI-6780 + Vorinostat (first compound 0.8 µM). Also, the values for the relative viability with AGI-6780 + Vorinostat (first compound 2.53 µM) and with AGI-6780 + Vorinostat (first compound 8 µM) were 0.605 and 0.8, respectively.

Regarding NCI-H322M, the relative viability in the test with AGI-6780 + Crizotinib (first compound 0.08 µM) came to 0.785; in the test with AGI-6780 + Crizotinib (first compound 0.253 µM) it was 0.861; with AGI-6780 + Crizotinib (first compound 0.8 µM), 1.02; with AGI-6780 + Crizotinib (first compound 2.53 µM), 0.986; with AGI-6780 + Crizotinib (first compound 8 µM), 0.858; with AGI-6780 + Navitoclax (first compound 0.08 µM) it was 1.11. The relative viability with AGI-6780 + Navitoclax (first compound 0.253 µM) was determined as 1.14; with AGI-6780 + Navitoclax (first compound 0.8 µM), 1.28; with AGI-6780 + Navitoclax (first compound 2.53 µM), 1.24; with AGI-6780 + Navitoclax (first compound 8 µM), 1.21; with AGI-6780 + Dasatinib (first compound 0.08 µM), 0.253; with AGI-6780 + Dasatinib (first compound 0.253 µM), 0.259. Moreover, the relative viability with AGI-6780 + Dasatinib (first compound 0.8 µM) was found to be 0.242; with AGI-6780 + Dasatinib (first compound 2.53 µM), 0.237; with AGI-6780 + Dasatinib (first compound 8 µM) it was 0.261; with AGI-6780 + Vorinostat (first compound 0.253 µM), 0.956; with AGI-6780 + Vorinostat (first compound 0.8 µM), 1.03; with AGI-6780 + Vorinostat (first compound 2.53 µM), 0.855. Moreover, in the test with AGI-6780 + Vorinostat (first compound 8 µM), the relative viability amounted to 0.855.

With COR-L 105, the relative viability with AGI-6780 + Crizotinib (first compound 0.08 µM) amounted to 0.899; with AGI-6780 + Crizotinib (first compound 0.253 µM), 0.738; in the test with AGI-6780 + Crizotinib (first compound 0.8 µM), 1.01; with AGI-6780 + Crizotinib (first compound 2.53 µM), 0.708; with AGI-6780 + Crizotinib (first compound 8 µM), 0.848; in the test with AGI-6780 + Navitoclax (first compound 0.08 µM) it was 0.918. Besides, the relative viability with AGI-6780 + Navitoclax (first compound 0.253 µM) is 0.62; with AGI-6780 + Navitoclax (first compound 0.8 µM) it was 0.841; with AGI-6780 + Navitoclax (first compound 2.53 µM), 0.862; with AGI-6780 + Navitoclax (first compound 8 µM), 0.763; with AGI-6780 + Dasatinib (first compound 0.08 µM), 0.345; with AGI-6780 + Dasatinib (first compound 0.253 µM), 0.349. In addition, the relative viability in the test with AGI-6780 + Dasatinib (first compound 0.8 µM) stood at 0.397; with AGI-6780 + Dasatinib (first compound 2.53 µM), 0.369; with AGI-6780 + Dasatinib (first compound 8 µM) it was 0.378; in the test with AGI-6780 + Vorinostat (first compound 0.08 µM), 0.908; with AGI-6780 + Vorinostat (first compound 0.253 µM) it was 1.34; with AGI-6780 + Vorinostat (first compound 0.8 µM) it was 0.975. The relative viability in the test with AGI-6780 + Vorinostat (first compound 2.53 µM) was 0.97; in the test with AGI-6780 + Vorinostat (first compound 8 µM), 0.841.

For the cell line HCC-827, the relative viability worked out at 0.965 with AGI-6780 + Crizotinib (first compound 0.08 µM); 0.9 with AGI-6780 + Crizotinib (first compound 0.253 µM); 0.861 with AGI-6780 + Crizotinib (first compound 0.8 µM); 0.981 with AGI-6780 + Crizotinib (first compound 2.53 µM); 0.943 with AGI-6780 + Crizotinib (first compound 8 µM); 1.09 with AGI-6780 + Navitoclax (first compound 0.08 µM). The relative viability was 1.06 with AGI-6780 + Navitoclax (first compound 0.253 µM); 1 with AGI-6780 + Navitoclax (first compound 0.8 µM); 1.01 with AGI-6780 + Navitoclax (first compound 2.53 µM); 0.935 in the test with AGI-6780 + Navitoclax (first compound 8 µM); 0.363 in the test with AGI-6780 + Dasatinib (first compound 0.08 µM); 0.23 with AGI-6780 + Dasatinib (first compound 0.253 µM). The relative viability with AGI-6780 + Dasatinib (first compound 0.8 µM) is 0.337; with AGI-6780 + Dasatinib (first compound 2.53 µM), 0.273; with AGI-6780 + Dasatinib (first compound 8 µM), 0.293; in the test with AGI-6780 + Vorinostat (first compound 0.08 µM), 0.983; with AGI-6780 + Vorinostat (first compound 0.253 µM), 0.849; with AGI-6780 + Vorinostat (first compound 0.8 µM), 0.896. Also, the relative viability is 0.802 with AGI-6780 + Vorinostat (first compound 2.53 µM) and 1 in the test with AGI-6780 + Vorinostat (first compound 8 µM).

Turning to NCI-H2087, the relative viability stood at 0.869 with AGI-6780 + Crizotinib (first compound 0.08 µM); 0.922 with AGI-6780 + Crizotinib (first compound 0.253 µM); 0.851 with AGI-6780 + Crizotinib (first compound 0.8 µM); 0.86 with AGI-6780 + Crizotinib (first compound 2.53 µM); 0.919 with AGI-6780 + Crizotinib (first compound 8 µM); 1.08 with AGI-6780 + Navitoclax (first compound 0.08 µM). Besides, the relative viability with AGI-6780 + Navitoclax (first compound 0.253 µM) was found to be 0.986; with AGI-6780 + Navitoclax (first compound 0.8 µM), 0.98; in the test with AGI-6780 + Navitoclax (first compound 2.53 µM), 0.982; with AGI-6780 + Navitoclax (first compound 8 µM) it was 0.97; in the test with AGI-6780 + Dasatinib (first compound 0.08 µM) it was 0.843; with AGI-6780 + Dasatinib (first compound 0.253 µM) it was 0.866. For the same cell line, the relative viability with AGI-6780 + Dasatinib (first compound 0.8 µM) came to 0.888; with AGI-6780 + Dasatinib (first compound 2.53 µM) it was 0.852; with AGI-6780 + Dasatinib (first compound 8 µM), 0.838; with AGI-6780 + Vorinostat (first compound 0.08 µM), 0.546; with AGI-6780 + Vorinostat (first compound 0.253 µM), 0.646; with AGI-6780 + Vorinostat (first compound 0.8 µM), 0.719. Moreover, the relative viability with AGI-6780 + Vorinostat (first compound 2.53 µM) is 0.744; in the test with AGI-6780 + Vorinostat (first compound 8 µM), 0.868.
